What was measured:
Type in all cases: functional
A549 = assay: Downregulation of cyclin D1 expression in human A549 cells by immunohistochemical analysis relative to control
SK-MEL-2 = assay: Cytotoxicity against human SK-MEL-2 cells after 72 hrs by SRB assay; conditions: SK-MEL-2, 72 h
[1] = Cytotoxicity against human COLO205 cells after 72 hrs by SRB assay; conditions: COLO 205, 72 h
NCI-H23 = assay: Cytotoxicity against human NCI-H23 cells after 72 hrs by SRB assay; conditions: NCI-H23, 72 h
[2] = Cytotoxicity against human DU145 cells after 72 hrs by SRB assay; conditions: DU-145, 72 h
KM12 = assay: Cytotoxicity against human KM12 cells after 72 hrs by SRB assay; conditions: KM12, 72 h
[3] = Cytotoxicity against human Caki1 cells after 72 hrs by SRB assay; conditions: CAKI-1, 72 h
[4] = Cytotoxicity against human OVCAR3 cells after 72 hrs by SRB assay; conditions: OVCAR-3, 72 h
[5] = Cytotoxicity against human SNB75 cells after 72 hrs by SRB assay; conditions: SNB-75, 72 h
MDA-MB-468 = assay: Cytotoxicity against human MDA-MB-468 cells after 72 hrs by SRB assay; conditions: MDA-MB-468, 72 h
[6] = read-out: LC50 (the source's name)

Which Activity (A549) does the source give for `O=C(NC1CCCCC1)c1ccc(Nc2ncnc3c2cnn3-c2ccccc2)cc1` here?
Its Activity is 51%.

What about the GI50 (SK-MEL-2) of the same molecule?
The GI50 was 13.6 µM.

What about the TGI (SK-MEL-2) of the same molecule?
The TGI was 36.2 µM.

What about the CC50 (SK-MEL-2; [6]) of the same molecule?
The CC50 was 96.3 µM.

And the GI50 [1]?
The GI50 was 12.5 µM.

What about the TGI [1] of the same molecule?
Its TGI is > 100 µM.

And the CC50 [1, 6]?
The CC50 was > 100 µM.

What about the GI50 (NCI-H23) of the same molecule?
The GI50 was 10.9 µM.

And the TGI (NCI-H23)?
Its TGI is 89.9 µM.

And the CC50 (NCI-H23; [6])?
The CC50 was > 100 µM.

What about the GI50 [2] of the same molecule?
The GI50 was 10.6 µM.

What about the TGI [2] of the same molecule?
The TGI was 48.1 µM.

And the CC50 [2, 6]?
Its CC50 is > 100 µM.

What about the GI50 (KM12) of the same molecule?
The GI50 was 57.8 µM.

What about the TGI (KM12) of the same molecule?
The TGI was > 100 µM.

What about the CC50 (KM12; [6]) of the same molecule?
Its CC50 is > 100 µM.

What about the GI50 [3] of the same molecule?
The GI50 was 14 µM.

What about the TGI [3] of the same molecule?
Its TGI is > 100 µM.

What about the CC50 [3, 6] of the same molecule?
The CC50 was > 100 µM.

What about the GI50 [4] of the same molecule?
The GI50 was 14.3 µM.

What about the TGI [4] of the same molecule?
The TGI was > 100 µM.

And the CC50 [4, 6]?
The CC50 was > 100 µM.

And the GI50 [5]?
Its GI50 is 1.71 µM.

What about the TGI [5] of the same molecule?
Its TGI is 5.4 µM.

And the CC50 [5, 6]?
Its CC50 is 35.9 µM.

What about the GI50 (MDA-MB-468) of the same molecule?
The GI50 was 21.7 µM.

And the TGI (MDA-MB-468)?
Its TGI is > 100 µM.

And the CC50 (MDA-MB-468; [6])?
The CC50 was > 100 µM.

— ChEMBL document CHEMBL3751764, “Synthesis and in vitro antiproliferative activity of novel pyrazolo[3,4-d]pyrimidine derivatives” (Medchemcomm, 2015)
